Experimental data reported in US20170363637A1, “Method and Kit for Determining Risk of Preterm Birth and/or Birth of Low-Birth-Weight Baby” (HIROSHIMA UNIVERSITY, priority 2014, published 2017).

Legend:
[1] = system: C57Bl/6J mice infected with P.g. w83 strain; assay: Effect of Gal-3 inhibitor on preterm birth induced by dental infection of P.g. (gestational period); type: in vivo, mouse; conditions: 5 mg/kg N-Lac intraperitoneally at gestational ages of 12, 15 and 18 days
Protocol: Effect of a Gal-3 inhibitor, N-acetyllactosamine (N-Lac), on preterm birth induced by dental infection of P.g. was studied.
8-wks-old female C57Bl/6J mice were infected with P.g. w83 strain via the pulp chambers of the first molars. After periapical granuloma, which serves as a persistent source of P.g., was established at 6wks post-infection, mating was started (P.g. group). A half of the mice in P.g. group was intraperitoneally administered with 5 mg/kg of N-Lac (Sigma-Aldrich) at the gestational ages of 12, 15 and 18 days (P.g./N-Lac group). Healthy pregnant mice without P.g. infection were used as a control (NC group). The gestational period was compared among the groups. At the gestational age of 17 days the placental tissues were harvested, and inflammatory cell infiltration (MΦ, neutrophils), damage of endothelial cells (CD31), and immunolocalization of factors promoting delivery (TNF-α, COX-2, and Gal-3) were compared among the groups.

HTR-8 cells [2] = assay: Effect of Gal-3 inhibitor on human placenta cell line stimulated with P.g.-LPS (Western-blotting); type: cell-based
Protocol: Human trophoblast cell line—HTR-8/Svneo cells were kindly gifted from Prof. Charles H. Graham (Queen's University, Canada). The cells were grown in RPMI 1640 media (Nissui Pharmaceutical Co., Tokyo, Japan) supplemented with 10% heat-inactivated FBS (Invitrogen) and 100 Uml penicillin-streptomycin (Gibco, Tokyo, Japan). For the experiments, cells were seeded at a density of 5×10^5 cells in 35 mm culture dishes. The cells were maintained at 37° C. in a normal atmosphere containing 5% CO2. The cells were stimulated by 1 μg/ml of P.g.-LPS (Invivogen, SanDiego, Calif., USA), expression of Gal-3 mRNA and Gal-3 levels in the culture media were measured at one, two, or three days after the stimulation.
HTR-8 cells were stimulated with P.g.-LPS (1 μg/ml) and N-Lac (10^−9 M and 10^−8 M), and the expression levels of Gal-3, TNF-α, COX-2 and IL-8 in the culture supernatants were measured by RT-PCR and Western-blotting.

[3] = system: placental tissues of P.g.-infected mice; assay: Histological and immunohistochemical observation of placental tissues at gestational age of 17 days; type: in vivo, mouse; conditions: placenta at gestational age of 17 days; P.g./N-Lac group vs P.g. group
Protocol: Immunohistochemical staining was performed in a conventional manner. As PMNL markers, MCA771GA (rat anti-neutrophils antibody, purchased from AbD Serotec (Raleigh, N.C., USA), 1:5000), rabbit monoclonal anti-COX-2 antibody (purchased from Cell Signaling Technology (Danvers, Mass., USA), 1:100), goat anti-TNF-α antibody (purchased from Santa Cruz Biotechnology, Inc. (Santa Cruz, Calif., USA), 1:50), and rat anti-galectin-3 antibody (purchased from BioLegend, Inc (San Diego, Calif., USA), 1:500) were used. A high polymer method (Histofine Max-PO; Nichirei Biosciences) was used for immunohistochemical staining of the markers. Specificity of the antibodies was ascertained by substituting PBS/serum for each antibody.
8-wks-old female C57Bl/6J mice were infected with P.g. w83 strain via the pulp chambers of the first molars. After periapical granuloma, which serves as a persistent source of P.g., was established at 6wks post-infection, mating was started (P.g. group). A half of the mice in P.g. group was intraperitoneally administered with 5 mg/kg of N-Lac (Sigma-Aldrich) at the gestational ages of 12, 15 and 18 days (P.g./N-Lac group). Healthy pregnant mice without P.g. infection were used as a control (NC group). The gestational period was compared among the groups. […]

HTR-8 cells [4] = assay: TNF-α stimulation of HTR-8 cells, Gal-3 production; type: cell-based, human; conditions: 10 ng/ml rhTNF-α; 2 days post-stimulation; P<0.01
Protocol: Gal-3 protein levels in the cell culture supernatants were analyzed by Human Galectin-3 Immunoassay (R&D Systems) as the manufacturer recommended. Statistical differences among the experimental groups were evaluated by analysis of T test using GraphPad Prism (version 6.0c, CA, USA) with the level of significance set at P<0.01**.
Effect of TNF-α, which is produced by P.g.-LPS stimulation, on Gal-3 production was studied.
Recombinant human TNF-α (rhTNF-α, purchased from R&D Systems (Minneapolis, Minn., USA)) was applied at 10 ng/ml to HTR-8 cells for 1, 2 or 3 days and the Gal-3 protein levels in the culture media were measured. The cell culture and measurement of the Gal-3 protein levels were performed in the same manner as in Example 6.

[5] = P.g.-LPS 1 μg/ml and N-Lac (10^−9 M and 10^−8 M)

| Compound | preterm birth induced by P.g. ([1]; p<0.05) | average gestational period ([1]; P.g./N-Lac group, NC 20, P.g. 18.3) | Gal-3 expression upregulated by the P.g.-LPS stimulation (HTR-8 cells [2]; [5]) | TNF-α expression upregulated by the P.g.-LPS stimulation (HTR-8 cells [2]; [5]) | expression of TNF-α (HTR-8 cells [2]; incubation with N-Lac (10^−9 M and 10^−8 M)) | decrease of CD31 and expression of TNF-α, COX-2 and Gal-3 in placenta [3] | denature and detachment of the amnion membrane, denature and necrosis of the placenta, increase of inflammatory cell infiltration [3] | Gal-3 protein level in culture media (HTR-8 cells [4]) |
| --- | --- | --- | --- | --- | --- | --- | --- | --- |
| CC(=O)N[C@H]1C(O)O[C@H](CO)[C@@H](O[C@@H]2O[C@H](CO)[C@H](O)[C@H](O)[C@H]2O)[C@@H]1O (some centres unmarked) [N-Lac, N-acetyllactosamine] | significantly suppressed preterm birth | 20.7 days | remarkably reduced | remarkably reduced | suppressed | improved | not observed |  |
| TNF-α |  |  |  |  |  |  |  | significant increased |
